Tests used:
[1] = biological target: T1, Dihydrolipoyl dehydrogenase (Mycobacterium tuberculosis (strain ATCC 25618 / H37Rv), UniProt P9WHH9); test: Enzyme Assays
T1 sequence (P9WHH9 whole entry): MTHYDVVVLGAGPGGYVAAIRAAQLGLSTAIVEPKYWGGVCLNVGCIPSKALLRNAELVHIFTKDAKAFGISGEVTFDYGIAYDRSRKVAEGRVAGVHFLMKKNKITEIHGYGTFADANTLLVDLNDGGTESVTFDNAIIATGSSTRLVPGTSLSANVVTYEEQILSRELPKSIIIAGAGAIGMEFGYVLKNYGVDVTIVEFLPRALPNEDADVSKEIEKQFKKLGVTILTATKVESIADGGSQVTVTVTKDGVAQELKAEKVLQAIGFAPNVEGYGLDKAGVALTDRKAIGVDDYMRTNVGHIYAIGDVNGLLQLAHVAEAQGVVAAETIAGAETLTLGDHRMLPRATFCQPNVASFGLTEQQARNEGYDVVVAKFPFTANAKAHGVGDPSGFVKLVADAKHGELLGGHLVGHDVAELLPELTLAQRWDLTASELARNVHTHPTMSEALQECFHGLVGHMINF

[2] = biological target: T2, Dihydrolipoyl dehydrogenase (Mycobacterium tuberculosis (strain CDC 1551 / Oshkosh), UniProt P9WHH8); test: Enzyme Assays
T2 sequence (P9WHH8 whole entry): T1 sequence (P9WHH9 whole entry)

SMILES: CN(CC(=O)Nc1ccc(F)c(Cl)c1)S(=O)(=O)c1cc(Br)cnc1N [SL418]
- Ki [1]: 0.333 µM
- Ki [2]: 0.143 µM

SMILES: Nc1ncc(Br)cc1S(=O)(=O)NCCC(=O)Nc1cccc(Cl)c1 [K906-3123]
- IC50 [2]: > 100 µM

SMILES: CN1CCN(S(=O)(=O)c2cc(Br)cnc2N)CC1 [E138-2099]
- IC50 [2]: > 100 µM

SMILES: CCCCN(C)C(=O)CCNS(=O)(=O)c1cc(Br)cnc1N [E199-0112]
- IC50 [2]: > 100 µM

SMILES: CN(Cc1ccccc1)C(=O)CN(C)S(=O)(=O)c1cc(Br)cnc1N [E144-0828]
- IC50 [2]: 34 µM

SMILES: NC(=O)C(=O)NCc1cccnc1 [4031-0653]
- IC50 [2]: 6 µM

SMILES: CCCCNS(=O)(=O)c1cc(Br)cnc1N [E138-2195]
- IC50 [2]: > 100 µM

SMILES: CC(C)(C)NC(=O)C(=O)NCc1cccnc1 [4031-1995]
- IC50 [2]: 100 µM

SMILES: CC1CCCCC1NC(=O)CN(C)S(=O)(=O)c1cccc2cccnc12 (stereo not drawn) [N-(2-methylcyclohexyl)-2-[methyl(quinolin-8-ylsulfonyl)amino]acetamide]
- IC50 [2]: > 100 µM

SMILES: Cc1cc(NC(=O)CN(C)S(=O)(=O)c2cc(Br)cnc2N)ccc1Br [K906-3584]
- IC50 [2]: < 0.1 µM

SMILES: O=C(Nc1ccc(Br)cc1)C1CCC(S(=O)(=O)c2cccnc2)CC1 (stereo not drawn) [C324-0095]
- IC50 [2]: > 100 µM

SMILES: CCN(Cc1ccccc1)C(=O)CN(C)S(=O)(=O)c1cc(Br)cnc1N [E114-0951]
- IC50 [2]: 12.5 µM

Source: BindingDB's records for doi:10.1021/bi401077f (Weill Cornell Medical College, 2013)
